Source: patent US10160726B2, “Quinolone derivatives as antibacterials” (priority 2014, dated 2018)
Values after ≈ are worked out from the molar mass of the structure shown. Where a name gives a salt, the structure may show the parent alone. Read-outs that look alike come from different tables or passages of the source.

How the values were obtained:
Type in all cases: cell-based
[1] = system: E. coli ATCC 25922 (NB27001); test: MIC, broth microdilution (CLSI); details: Escherichia coli, ATCC25922; E. coli ATCC 25922; 35° C., 20 hours; read-out: Antibacterial activity (MIC) NB27001
[2] = system: E. coli NB27177 (efflux deficient CGSC 11430, ΔtolC732::kan); test: microbe, parasite or virus in culture; details: Escherichia coli, 20 h, read-out: Antibacterial activity (MIC) NB27177
[3] = system: P. aeruginosa NB52019 (wild-type PAO1); test: MIC, broth microdilution (CLSI); details: Pseudomonas aeruginosa, read-out: Antibacterial activity (MIC) NB52019
[4] = system: P. aeruginosa NB52023 (efflux deficient K1542, ΔmexX ΔmexB); test: microbe, parasite or virus in culture; details: Pseudomonas aeruginosa, 20 h, read-out: Antibacterial activity (MIC) NB52023
[5] = system: P. aeruginosa NB52023-CDK0006 (gyrA T83I, parC S87L); test: microbe, parasite or virus in culture; details: Pseudomonas aeruginosa, 20 h, read-out: Antibacterial activity (MIC) NB52023-CDK0006
[6] = system: S. aureus ATCC 29213 (NB01001); test: MIC, broth microdilution (CLSI); details: Staphylococcus aureus, ATCC29213; S. aureus ATCC 29213; 35° C., 20 hours; read-out: Antibacterial activity (MIC) NB01001
[7] = system: S. aureus NB01006-AVR005 (gyrA S84L, grlA S80F, grlB E471K); test: microbe, parasite or virus in culture; details: Staphylococcus aureus, 20 h, read-out: Antibacterial activity (MIC) NB01006-AVR005
[8] = P. aeruginosa wild-type PAO1, 35° C., 20 hours

Structure (SMILES) | MIC [1] | MIC [2] | MIC ([3]; PAO1, 20 h) | MIC [4] | MIC [5] | MIC [6] | MIC [7] | MIC [3, 8]
Cc1c(N2CC[C@@H]([C@H](C)N)C2)c(F)cc2c(OCCNS(C)(=O)=O)cc(=O)n(C3CC3)c12 [Example 66, N-(2-((7-((R)-3-((S)-1-aminoethyl)pyrrolidin-1-yl)-1-cyclopropyl-6-fluoro-8-methyl-2-oxo-1,2-dihydroquinolin-4-yl)oxy)ethyl)methanesulfonamide] | 32 µg/mL (≈ 68.6 µM) | 2 µg/mL (≈ 4.29 µM) | > 32 µg/mL | > 32 µg/mL | > 32 µg/mL | 4 µg/mL (≈ 8.57 µM) | 4 µg/mL (≈ 8.57 µM) | –
COc1cc(=O)n(C2CC2)c2c(C)c(N3CC[C@@H]([C@H](C)N)C3)c(F)cc12 [Example 67, 7-((R)-3-((S)-1-aminoethyl)pyrrolidin-1-yl)-1-cyclopropyl-6-fluoro-4-methoxy-8-methylquinolin-2(1H)-one] | 8 µg/mL (≈ 22.3 µM) | 0.06 µg/mL (≈ 0.167 µM) | 32 µg/mL (≈ 89 µM) | 8 µg/mL (≈ 22.3 µM) | 16 µg/mL (≈ 44.5 µM) | 0.06 µg/mL (≈ 0.167 µM) | 0.06 µg/mL (≈ 0.167 µM) | –
COc1cc(=O)n(C2CC2)c2c(C)c(N3CC[C@@H]([C@H](C)N)C3)ccc12 [Example 68, 7-((R)-3-((S)-1-aminoethyl)pyrrolidin-1-yl)-1-cyclopropyl-4-methoxy-8-methylquinolin-2(1H)-one] | 32 µg/mL (≈ 93.7 µM) | 0.25 µg/mL (≈ 0.732 µM) | > 32 µg/mL | > 32 µg/mL | > 32 µg/mL | 0.5 µg/mL (≈ 1.46 µM) | 1 µg/mL (≈ 2.93 µM) | –
COc1cc(=O)n(C2CC2)c2c(C)c(-c3ccc(N)nc3)ccc12 [Example 69, 7-(6-aminopyridin-3-yl)-1-cyclopropyl-4-methoxy-8-methylquinolin-2(1H)-one] | 32 µg/mL (≈ 99.6 µM) | 0.5 µg/mL (≈ 1.56 µM) | > 32 µg/mL | > 32 µg/mL | > 32 µg/mL | 2 µg/mL (≈ 6.22 µM) | 2 µg/mL (≈ 6.22 µM) | –
COc1c(C)c(=O)n(C2CC2)c2c(C)c(-c3ccc(N)nc3)ccc12 [Example 70, 7-(6-aminopyridin-3-yl)-1-cyclopropyl-4-methoxy-3,8-dimethylquinolin-2(1H)-one] | 32 µg/mL (≈ 95.4 µM) | 2 µg/mL (≈ 5.96 µM) | 32 µg/mL (≈ 95.4 µM) | > 32 µg/mL | > 32 µg/mL | 16 µg/mL (≈ 47.7 µM) | 4 µg/mL (≈ 11.9 µM) | –
Cc1c(N2CC[C@@H]([C@H](C)N)C2)ccc2c(OCc3ccccc3)cc(=O)n(C3CC3)c12 [Example 71, 7-((R)-3-((S)-1-aminoethyl)pyrrolidin-1-yl)-4-(benzyloxy)-1-cyclopropyl-8-methylquinolin-2(1H)-one TFA salt] | 32 µg/mL | 6 µg/mL | > 32 µg/mL | > 32 µg/mL | > 32 µg/mL | 2 µg/mL | 6 µg/mL | –
Cc1c(N2CC[C@@H]([C@H](C)N)C2)ccc2c(O)cc(=O)n(C3CC3)c12 [Example 72, 7-((R)-3-((S)-1-aminoethyl)pyrrolidin-1-yl)-1-cyclopropyl-4-hydroxy-8-methylquinolin-2(1H)-one TFA salt] | 32 µg/mL | 16 µg/mL | 32 µg/mL | > 32 µg/mL | > 32 µg/mL | 16 µg/mL | 8 µg/mL | –
Cc1c(-c2ccc(N)nc2)ccc2ccc(=O)n(C3CC3)c12 [Example 75, 7-(6-aminopyridin-3-yl)-1-cyclopropyl-8-methylquinolin-2(1H)-one] | 32 µg/mL (≈ 110 µM) | 0.5 µg/mL (≈ 1.72 µM) | > 32 µg/mL | 32 µg/mL (≈ 110 µM) | > 32 µg/mL | 8 µg/mL (≈ 27.5 µM) | 8 µg/mL (≈ 27.5 µM) | –
Cc1c(-c2ccc(N)nc2)ccc2cc(O)c(=O)n(C3CC3)c12 [Example 77, 7-(6-Aminopyridin-3-yl)-1-cyclopropyl-3-hydroxy-8-methylquinolin-2(1H)-one TFA salt] | 32 µg/mL | 0.5 µg/mL | > 32 µg/mL | > 32 µg/mL | > 32 µg/mL | 4 µg/mL | 32 µg/mL | –
COc1cc2ccc(-c3ccc(N)nc3)c(C)c2n(C2CC2)c1=O [Example 78, 7-(6-Aminopyridin-3-yl)-1-cyclopropyl-3-methoxy-8-methylquinolin-2(1H)-one TFA salt] | 32 µg/mL | 1 µg/mL | > 32 µg/mL | > 32 µg/mL | > 32 µg/mL | 8 µg/mL | 16 µg/mL | –
COc1cc2ccc(N3CC[C@@H]([C@H](C)N)C3)c(C)c2n(C2CC2)c1=O [Example 80, 7-((R)-3-((S)-1-aminoethyl)pyrrolidin-1-yl)-1-cyclopropyl-3-methoxy-8-methylquinolin-2(1H)-one TFA salt] | 32 µg/mL | 2 µg/mL | > 32 µg/mL | > 32 µg/mL | > 32 µg/mL | 1 µg/mL | 2 µg/mL | –
Cc1c(N2CCNCC2)c(F)cc2c(CN)cc(=O)n(C3CC3)c12 [Example 81.09, 4-(aminomethyl)-1-cyclopropyl-6-fluoro-8-methyl-7-(piperazin-1-yl)quinolin-2(1H)-one] | 2 µg/mL (≈ 6.05 µM) | 0.5 µg/mL (≈ 1.51 µM) | – | 0.5 µg/mL (≈ 1.51 µM) | 2 µg/mL (≈ 6.05 µM) | 16 µg/mL (≈ 48.4 µM) | 16 µg/mL (≈ 48.4 µM) | 4 µg/mL (≈ 12.1 µM)
Cc1c(N2CC3CC3(N)C2)c(F)cc2c(CN)cc(=O)n(C3CC3)c12 (stereo not drawn) [Example 81.23, 7-(1-amino-3-azabicyclo[3.1.0]hexan-3-yl)-4-(aminomethyl)-1-cyclopropyl-6-fluoro-8-methylquinolin-2(1H)-one] | 0.25 µg/mL (≈ 0.73 µM) | 0.06 µg/mL (≈ 0.175 µM) | 4 µg/mL (≈ 11.7 µM) | 0.5 µg/mL (≈ 1.46 µM) | 1 µg/mL (≈ 2.92 µM) | 0.5 µg/mL (≈ 1.46 µM) | 0.5 µg/mL (≈ 1.46 µM) | –
Cc1c(N2CC[C@H](O)C2)c(F)cc2c(CN)cc(=O)n(C3CC3)c12 [Example 81.32, (S)-4-(aminomethyl)-1-cyclopropyl-6-fluoro-7-(3-hydroxypyrrolidin-1-yl)-8-methylquinolin-2(1H)-one] | 0.5 µg/mL (≈ 1.51 µM) | < 0.03 µg/mL | 4 µg/mL (≈ 12.1 µM) | 0.25 µg/mL (≈ 0.754 µM) | 1 µg/mL (≈ 3.02 µM) | 0.5 µg/mL (≈ 1.51 µM) | 1 µg/mL (≈ 3.02 µM) | –
Cc1c(N2CCC(F)(CN)C2)c(F)cc2c(CN)cc(=O)n(C3CC3)c12 (stereo not drawn) [Example 81.33, 4-(aminomethyl)-7-(3-(aminomethyl)-3-fluoropyrrolidin-1-yl)-1-cyclopropyl-6-fluoro-8-methylquinolin-2(1H)-one] | 0.5 µg/mL (≈ 1.38 µM) | 0.06 µg/mL (≈ 0.166 µM) | 2 µg/mL (≈ 5.52 µM) | 0.5 µg/mL (≈ 1.38 µM) | 1 µg/mL (≈ 2.76 µM) | 0.5 µg/mL (≈ 1.38 µM) | 1 µg/mL (≈ 2.76 µM) | –
Cc1c(N2CCC(F)(CN)C2)c(F)c(F)c2c(CN)cc(=O)n(C3CC3)c12 (stereo not drawn) [Example 83, 4-(aminomethyl)-7-(3-(aminomethyl)-3-fluoropyrrolidin-1-yl)-1-cyclopropyl-5,6-difluoro-8-methylquinolin-2(1H)-one TFA salt] | 0.125 µg/mL | < 0.03 µg/mL | 2 µg/mL | 0.25 µg/mL | 0.5 µg/mL | 0.125 µg/mL | 0.125 µg/mL | –
Cc1c(N2CC[C@H](N)C2)c(F)c(F)c2c(CN)cc(=O)n(C3CC3)c12 [Example 83.6, (S)-4-(aminomethyl)-7-(3-aminopyrrolidin-1-yl)-1-cyclopropyl-5,6-difluoro-8-methylquinolin-2(1H)-one] | 0.5 µg/mL (≈ 1.44 µM) | 0.06 µg/mL (≈ 0.172 µM) | 4 µg/mL (≈ 11.5 µM) | 0.25 µg/mL (≈ 0.718 µM) | 0.5 µg/mL (≈ 1.44 µM) | 1 µg/mL (≈ 2.87 µM) | 2 µg/mL (≈ 5.74 µM) | –
Cc1c(N2CCC(CN)C2)c(F)cc2c(CNCCN)cc(=O)n(C3CC3)c12.O=C(O)C(F)(F)F (stereo not drawn) [Example 87, 4-(((2-aminoethyl)amino)methyl)-7-(3-(aminomethyl)pyrrolidin-1-yl)-1-cyclopropyl-6-fluoro-8-methylquinolin-2(1H)-one TFA salt] | 8 µg/mL | 0.5 µg/mL | – | 4 µg/mL | 8 µg/mL | 0.5 µg/mL | 0.25 µg/mL | 16 µg/mL
CNCc1cc(=O)n(C2CC2)c2c(C)c(N3CCC(CN)C3)c(F)cc12.O=C(O)C(F)(F)F (stereo not drawn) [Example 88, 7-(3-(aminomethyl)pyrrolidin-1-yl)-1-cyclopropyl-6-fluoro-8-methyl-4-((methylamino)methyl)quinolin-2(1H)-one TFA salt] | 4 µg/mL | 0.25 µg/mL | – | 2 µg/mL | 4 µg/mL | 1 µg/mL | 2 µg/mL | 16 µg/mL
Cc1c(N2CCC(CN)C2)c(F)cc2c(CN(C)C)cc(=O)n(C3CC3)c12.O=C(O)C(F)(F)F (stereo not drawn) [Example 89, 7-(3-(aminomethyl)pyrrolidin-1-yl)-1-cyclopropyl-4-((dimethylamino)methyl)-6-fluoro-8-methylquinolin-2(1H)-one TFA salt] | 4 µg/mL | 0.5 µg/mL | – | 16 µg/mL | 32 µg/mL | 1 µg/mL | 4 µg/mL | > 32 µg/mL
Cc1c(N2CCC(CN)C2)c(F)cc2c(CCN)cc(=O)n(C3CC3)c12.O=C(O)C(F)(F)F (stereo not drawn) [Example 91, 4-(2-aminoethyl)-7-(3-(aminomethyl)pyrrolidin-1-yl)-1-cyclopropyl-6-fluoro-8-methylquinolin-2(1H)-one TFA salt] | 8 µg/mL | 1 µg/mL | – | 8 µg/mL | 16 µg/mL | 1 µg/mL | 1 µg/mL | 16 µg/mL
